Measurements from article PMC7248693, “Synthesis and Biological Evaluation of 2-Substituted Benzyl-/Phenylethylamino-4-amino-5-aroylthiazoles as Apoptosis-Inducing Anticancer Agents” (Molecules, 2020).

Experiments:
[1] = tested on: U-937; experiment: Antiproliferative activity, MTT assay, U-937 cells; assay type: cell-based, human; conditions: for IC50: Homo sapiens, U-937, 72 h, MTT, mean ± SE, at least three independent experiments
Description: (§1) In Table 1, we summarize the antiproliferative activity of the 15 novel 2-arylalkylamino-4-amino-5-(3′,4′,5′-trimethoxybenzoyl)thiazole derivatives 8a–o against human leukemia (U-937) and melanoma (SK-MEL-1) tumor cells lines.
(§2) Human U-937 and SK-MEL-1 cell lines were from the German Collection of Microorganisms and Cell Cultures (Braunschweig, Germany; DSMZ No: ACC 5 and ACC 303, respectively). The U-937 is a myeloid leukemia cell line isolated from a histiocytic lymphoma. SK-MEL-1 is a melanoma cell line. Cells were cultured in suspension in RPMI 1640 medium supplemented with 10% (v/v) fetal bovine serum and antibiotics (100 μg mL^−1 streptomycin and 100 U mL^−1 penicillin), at 37 °C in a humidified atmosphere containing 5% CO2. The trypan blue exclusion method was used for counting the cells by a hemocytometer, and cell viability was always greater than 95% in all experiments. Compounds were dissolved in DMSO, and further dilutions were made in culture medium just before use. […] The effects on cell viability of synthetic compounds were determined using a colorimetric assay with the reduction of 3-(4,5-dimethyl-2-thiazolyl-)-2,5-diphenyl-2H-tetrazolium bromide (MTT) as previously described. Briefly, 5 × 10^3 cells were seeded in 96-well microculture plates with increasing concentrations of compounds for 72 h. Then, MTT (0.5 mg mL^−1) was added and incubated for 4 h, and the reaction was stopped with 20% sodium dodecyl sulfate. A570 was used as a measure of cell viability. Concentrations inducing a 50% inhibition of cell growth were determined graphically by nonlinear regression using the curve-fitting algorithm of GraphPad Prism 4.0 (GraphPad Inc La Jolla, CA, USA).

[2] = tested on: SK-MEL-1; experiment: Antiproliferative activity, MTT assay, SK-MEL-1 cells; assay type: cell-based, human; conditions: Homo sapiens, SK-MEL-1; 72 h, MTT; mean ± SE, at least three independent experiments
Description: as §1, §2

| Structure (SMILES) | melting point [°C] | IC50 [1] [µM] | IC50 [2] [µM] | fold more potent than p-methoxy counterpart 8j ([1]; antiproliferative activity, cell line not specified (U-937 and SK-MEL-1)) [fold] |
| --- | --- | --- | --- | --- |
| COc1cc(C(=O)c2sc(NCc3ccc(F)cc3)nc2N)cc(OC)c1OC [8d, (4-Amino-2-((4-fluorobenzyl)amino)thiazol-5-yl)(3,4,5-trimethoxyphenyl)methanone] | 132 to 134 | 39.1 ± 4.2 | 51 ± 1.4 | – |
| COc1cc([C@@H]2c3cc4c(cc3[C@@H](O[C@@H]3O[C@@H]5CO[C@@H](C)O[C@H]5[C@H](O)[C@H]3O)[C@H]3COC(=O)[C@H]23)OCO4)cc(OC)c1O [Etoposide, reference compound] | – | 2.1 ± 0.4 | 6.3 ± 1 | – |
| COc1ccccc1CNc1nc(N)c(C(=O)c2cc(OC)c(OC)c(OC)c2)s1 [8m, (4-Amino-2-((2-methoxybenzyl)amino)thiazol-5-yl)(3,4,5-trimethoxyphenyl)methanone] | – | 13.6 ± 5.3 | 10.4 ± 2.8 | 2 |
| COc1cc(C(=O)c2sc(NCCc3ccccc3)nc2N)cc(OC)c1OC [8b, (4-Amino-2-(phenethylamino)thiazol-5-yl)(3,4,5-trimethoxyphenyl)methanone] | 135 to 138 | 19.3 ± 5.6 | 20.5 ± 6.9 | – |
| COc1ccc(-c2nc(N)c(C(=O)c3cc(OC)c(OC)c(OC)c3)s2)cc1 [1a, reference compound] | – | 34.3 ± 2.2 | 48.3 ± 4.6 | – |
| COc1cc(C(=O)c2sc(NCc3ccccc3)nc2N)cc(OC)c1OC [8a, (4-Amino-2-(benzylamino)thiazol-5-yl)(3,4,5-trimethoxyphenyl)methanone] | 147 to 149 | 21.1 ± 5.1 | 14.2 ± 9.7 | – |
| COc1cc(C(=O)c2sc(NCc3ccc(Br)cc3)nc2N)cc(OC)c1OC [8g, (4-Amino-2-((4-bromobenzyl)amino)thiazol-5-yl)(3,4,5-trimethoxyphenyl)methanone] | 154 to 157 | 12.9 ± 3.3 | 15.7 ± 4.9 | – |
| COc1ccc(CNc2nc(N)c(C(=O)c3cc(OC)c(OC)c(OC)c3)s2)cc1 [8j, (4-Amino-2-((4-methoxybenzyl)amino)thiazol-5-yl)(3,4,5-trimethoxyphenyl)methanone] | 131 to 135 | 23.8 ± 5.2 | 22.9 ± 13.7 | – |
| COc1ccc(CNc2nc(N)c(C(=O)c3cc(OC)c(OC)c(OC)c3)s2)cc1OC [8n, (4-Amino-2-((3,4-dimethoxybenzyl)amino)thiazol-5-yl)(3,4,5-trimethoxyphenyl)methanone] | 107 to 111 | 28.7 ± 10.5 | 32.7 ± 7.7 | – |
